In article PMC4423729 (Neuropharmacology, 2010):

Columns and labels:
isolated aortic rings = experiment: tPA induced vasodilation: phenylephrine contraction of isolated aortic rings; conditions: rtPA 1 nM, peptide 100 nM; EC50 of phenylephrine contraction; 3 experiments
rtPA = rtPA (Homo sapiens, UniProt P00750); experiment: Plasminogen activator activity; assay type: biochemical; conditions: Glu-plasminogen 100 nM, Spectrazyme PL 500 μM, PBS, 37°C, A405, 3 experiments
[1] = for solubility in an aqueous environment: qualitative
BBB permeability [2] = experiment: BBB permeability by extravasation of radiolabeled fibrinogen in rats; assay type: in vivo, rat; conditions: PAI-1 or peptide 1 mg/kg IV together with rtPA 1 mg/kg, 6 animals/group
BBB permeability [3] = experiment: BBB permeability post ischemia; assay type: in vivo, rat; conditions: Evans blue, 12 animals/group
Sprague-Dawley rats = conditions: rat, in vivo

Sequence of rtPA (P00750 36-562): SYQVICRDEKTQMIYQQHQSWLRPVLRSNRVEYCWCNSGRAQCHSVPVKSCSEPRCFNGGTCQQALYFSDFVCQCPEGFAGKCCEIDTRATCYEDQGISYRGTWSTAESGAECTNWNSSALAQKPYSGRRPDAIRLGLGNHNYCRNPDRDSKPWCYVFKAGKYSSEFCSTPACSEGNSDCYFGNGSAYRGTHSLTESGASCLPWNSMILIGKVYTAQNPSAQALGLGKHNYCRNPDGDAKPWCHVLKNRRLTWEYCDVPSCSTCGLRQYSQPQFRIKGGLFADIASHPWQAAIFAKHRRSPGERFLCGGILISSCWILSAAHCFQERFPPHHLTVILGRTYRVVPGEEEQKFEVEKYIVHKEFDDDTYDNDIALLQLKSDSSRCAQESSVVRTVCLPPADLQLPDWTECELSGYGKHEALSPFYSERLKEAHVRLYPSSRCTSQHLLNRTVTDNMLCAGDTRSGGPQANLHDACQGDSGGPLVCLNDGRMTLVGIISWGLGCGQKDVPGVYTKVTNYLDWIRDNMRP

Ac-RMAPEEIIMDR-NH2 [11-aa]
inhibition of rtPA-induced vasodilation (isolated aortic rings): inhibited vasodilation
effect on the catalytic activity of rtPA (plasminogen activation) (rtPA): without affecting the catalytic activity of rtPA

CC[C@H](C)[C@H](NC(=O)[C@H](CCC(=O)O)NC(=O)[C@H](CCC(=O)O)NC(=O)[C@@H]1CCCN1C(=O)[C@H](C)NC(=O)[C@H](CCSC)NC(=O)[C@H](CCCNC(=N)N)NC(C)=O)C(=O)N[C@H](C(=O)N[C@@H](CCSC)C(=O)N[C@@H](CC(=O)O)C(=O)N[C@@H](CCCNC(=N)N)C(=O)N1CCC[C@H]1C(=O)N[C@@H](Cc1ccccc1)C(=O)N[C@@H](CC(C)C)C(=O)N[C@@H](Cc1ccccc1)C(=O)N[C@H](C(=O)N[C@H](C(=O)N[C@@H](CCCNC(=N)N)C(N)=O)C(C)C)C(C)C)[C@@H](C)CC [18-aa]
maximal solubility ([1]; lyophilized peptide resuspended in 50% ethanol at 37°C, vortexed): 200 µg/mL
solubility in an aqueous environment [1]: relatively insoluble
inhibition of rtPA-induced vasodilation (isolated aortic rings): inhibited vasodilation
effect on the catalytic activity of rtPA (plasminogen activation) (rtPA): without affecting the catalytic activity of rtPA
effect on the catalytic activity of rtPA (plasminogen activation) (rtPA; listed as 18-aa- Phe^383): without inhibiting the catalytic activity of rtPA
inhibition of rtPA-induced permeation of radiolabeled fibrinogen (BBB permeability [2]): inhibited

rtPA
BBB permeability post tMCAO (BBB permeability [3]; rtPA three hours after the filament was withdrawn): re-opened the BBB
effect of rtPA on mortality (Sprague-Dawley rats): increased mortality
effect of rtPA on neurological severity score (NSS) (Sprague-Dawley rats): aggravated the neurological disability
mortality (Sprague-Dawley rats): 28.6±4.2%

CC[C@H](C)[C@H](NC(=O)[C@H](CCC(=O)O)NC(=O)[C@H](CCC(=O)O)NC(=O)[C@@H]1CCCN1C(=O)[C@H](C)NC(=O)[C@H](CCSC)NC(=O)[C@H](CCCNC(=N)N)NC(C)=O)C(=O)N[C@H](C(=O)N[C@@H](CCSC)C(=O)N[C@@H](CC(=O)O)C(=O)N[C@@H](CCCNC(=N)N)C(=O)N1CCC[C@H]1C(=O)N[C@@H](Cc1ccccc1)C(=O)N[C@@H](CC(C)C)C(=O)N[C@@H](Cc1ccc(O)cc1)C(=O)N[C@H](C(=O)N[C@H](C(=O)N[C@@H](CCCNC(=N)N)C(N)=O)C(C)C)C(C)C)[C@@H](C)CC [18-aa-Tyr^383]
solubility in an aqueous environment [1]: more soluble in an aqueous environment than the original sequence
inhibition of the late effect of rtPA on BBB permeability (BBB permeability [3]; peptide together with rtPA three hours after the filament was withdrawn): 96.7%
inhibition of rtPA-induced vasodilation (isolated aortic rings): inhibited rtPA-induced vasodilation
effect on the catalytic activity of rtPA (plasminogen activation) (rtPA): without inhibiting the catalytic activity of rtPA
